Values of other authors as cited in patent EP0919231A1, “Injectable parasiticide composition and process for the preparation” (Biogenesis, S.A., priority 1997, dated 1999).

Tests used:
[1] = bovines; for detection of parent drug in plasma: after administering albendazole or phenbendazole, found in the gastrointestinal lumen; for detected in plasma, time postreatment: metabolite after administering albendazole or phenbendazole respectively
[2] = test system: Trichostrongylus colubriformis; conditions: strain resistant to benzimidazoles; intravenous compared with oral administration
Haemonchus contortus = conditions: strain resistant to benzimidazoles; intravenous compared with oral administration

Q: Which “detection of parent drug in plasma” value [1] does the source give for `CCCSc1ccc2nc(NC(=O)OC)[nH]c2c1` [albendazole] here?
A: The value was “not detected”.

Q: What does the source list for `COC(=O)Nc1nc2ccc([S+]([O-])c3ccccc3)cc2[nH]1` (stereo not drawn) [oxphendazole, methyl ester of [(5-phenyl-sulphinyl)-1H-benzimidazol-2-il] carbamic acid]?
A: effectiveness intravenous versus oral [2]: more effective; effectiveness intravenous versus oral (Haemonchus contortus): more effective; detected in plasma, time postreatment [1]: ≤ 36 h

Q: Which “detection of parent drug in plasma” value [1] does the source give for `COC(=O)Nc1nc2ccc(Sc3ccccc3)cc2[nH]1` [phenbendazole] here?
A: Its value is “not detected”.

Q: Which “detected in plasma, time postreatment” value [1] does the source give for `CCC[S+]([O-])c1ccc2[nH]c(NC(=O)OC)nc2c1` (stereo not drawn) [ricobendazole, methyl ester of [(5-propyl-sulphinyl)-1H-benzimidazol-2-il] carbamic acid] here?
A: The value was no more than 36 h.
